Test results from patent US8962842B2, “2-pyridone antimicrobial compositions” (priority 2010, dated 2015).
pIC50: −log10 of the molar value. Read-outs that look alike come from different tables or passages of the source.

What was measured:
[1] = test system: Acinetobacter baumannii, quinolone-resistant strains (Quotient Bioresearch catalogue); assay: MIC against pathogens resistant against quinolones (Table 5); format: cell-based
[2] = test system: Pseudomonas aeruginosa (12 strains); assay: MIC range, broader panel of Quotient Bioresearch strains (Table 4); format: cell-based
[3] = test system: Streptococcus pyogenes (4 strains); assay: MIC range, broader panel of Quotient Bioresearch strains (Table 3)
[4] = biological target: bacterial topoisomerase IV (Escherichia coli, UniProt P0AFI2+P20083); assay: Inhibition of topoisomerases activity in vitro, Topogen protocol TG1007 (Table 7); format: biochemical
Sequence of bacterial topoisomerase IV (P20083 whole entry): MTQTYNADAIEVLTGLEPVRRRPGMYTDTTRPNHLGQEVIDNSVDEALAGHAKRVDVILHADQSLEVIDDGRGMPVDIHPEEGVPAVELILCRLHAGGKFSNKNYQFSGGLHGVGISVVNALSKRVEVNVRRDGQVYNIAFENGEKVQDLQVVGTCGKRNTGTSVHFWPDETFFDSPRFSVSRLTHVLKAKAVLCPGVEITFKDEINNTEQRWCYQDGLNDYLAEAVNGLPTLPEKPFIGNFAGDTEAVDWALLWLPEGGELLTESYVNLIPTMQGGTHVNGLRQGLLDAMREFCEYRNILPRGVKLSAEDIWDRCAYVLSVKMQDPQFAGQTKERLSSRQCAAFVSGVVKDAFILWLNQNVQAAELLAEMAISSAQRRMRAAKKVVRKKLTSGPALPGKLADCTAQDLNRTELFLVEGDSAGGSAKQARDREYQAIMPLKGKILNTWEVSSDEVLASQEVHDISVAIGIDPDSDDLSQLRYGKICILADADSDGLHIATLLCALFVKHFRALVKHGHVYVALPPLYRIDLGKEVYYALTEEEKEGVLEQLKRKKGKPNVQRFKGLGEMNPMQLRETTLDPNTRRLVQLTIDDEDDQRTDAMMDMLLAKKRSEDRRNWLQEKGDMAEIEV
Sequence of bacterial topoisomerase IV (P0AFI2 whole entry): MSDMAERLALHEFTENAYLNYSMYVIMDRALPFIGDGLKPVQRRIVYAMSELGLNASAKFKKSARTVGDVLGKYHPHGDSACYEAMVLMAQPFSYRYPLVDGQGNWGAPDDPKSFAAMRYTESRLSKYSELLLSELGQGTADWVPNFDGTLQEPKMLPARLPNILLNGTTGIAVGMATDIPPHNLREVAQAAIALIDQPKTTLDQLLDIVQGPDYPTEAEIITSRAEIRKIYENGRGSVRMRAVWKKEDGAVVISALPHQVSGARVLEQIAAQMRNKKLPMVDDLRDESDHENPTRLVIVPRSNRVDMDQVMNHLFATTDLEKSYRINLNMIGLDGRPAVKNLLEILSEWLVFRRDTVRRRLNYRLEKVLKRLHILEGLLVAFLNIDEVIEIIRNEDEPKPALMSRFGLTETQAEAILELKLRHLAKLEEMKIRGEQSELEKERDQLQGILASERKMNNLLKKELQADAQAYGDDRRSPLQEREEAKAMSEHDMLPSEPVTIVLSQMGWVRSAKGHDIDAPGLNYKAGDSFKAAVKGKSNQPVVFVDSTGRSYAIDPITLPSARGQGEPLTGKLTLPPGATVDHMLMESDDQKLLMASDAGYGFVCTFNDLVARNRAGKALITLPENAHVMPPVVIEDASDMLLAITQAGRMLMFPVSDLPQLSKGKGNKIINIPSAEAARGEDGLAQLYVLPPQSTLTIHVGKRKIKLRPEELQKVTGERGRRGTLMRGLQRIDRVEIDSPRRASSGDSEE

[5] = test system: Enterococcus faecium (3 strains); assay: MIC range, broader panel of Quotient Bioresearch strains (Table 3)
[6] = test system: Acinetobacter baumannii (12 strains); assay: MIC range, broader panel of Quotient Bioresearch strains (Table 4); format: cell-based
[7] = test system: Klebsiella pneumonia (4 strains); assay: as above; format: cell-based; details: Klebsiella pneumoniae
[8] = test system: Enterococcus faecalis (5 strains); assay: MIC range, broader panel of Quotient Bioresearch strains (Table 3)
[9] = test system: Haemophilus influenza (5 strains); assay: MIC range, broader panel of Quotient Bioresearch strains (Table 4); format: cell-based, Haemophilus influenzae
physchem = format: physicochemical; details: thermodynamic from solid
Protocol: The solutions were incubated at room temperature for 24 hours before quantification by HPLC detection. Aqueous solubility was evaluated in simulated gastric fluid (SGF), simulated intestinal fluid (SIF) and phosphate buffer saline (PBS) pH 7.4. Aqueous solubility is expressed in Table 11 as mean solubility in μM.

[10] = test system: Staphylococcus aureus (16 strains); assay: MIC range, broader panel of Quotient Bioresearch strains (Table 3)
[11] = Metabolic stability in liver microsomes +/- S9 fraction (Table 8); format: in vitro ADME; details: 1 μM
Protocol: Metabolic stability of a select number of examples was tested in liver microsomes+/−addition of S9 fraction as described by Kuhnz, W. and Gieschen, H. (1998), Drug Metab. Dispos., 1120-1127. Test concentration was 1 μM and HPLC/MS-MS was used for detection.

[12] = test system: Burkholderia cepacia (5 strains); assay: MIC range, broader panel of Quotient Bioresearch strains (Table 4); format: cell-based
[13] = test system: Streptococcus pneumonia (5 strains); assay: MIC range, broader panel of Quotient Bioresearch strains (Table 3); details: Streptococcus pneumoniae
bacterial gyrase = bacterial gyrase (Escherichia coli, UniProt P0AES4+P0AES6); assay: Inhibition of topoisomerases activity in vitro, Topogen protocol TG1003 (Table 7); format: biochemical
Sequence of bacterial gyrase (P0AES4 whole entry, one chain of several): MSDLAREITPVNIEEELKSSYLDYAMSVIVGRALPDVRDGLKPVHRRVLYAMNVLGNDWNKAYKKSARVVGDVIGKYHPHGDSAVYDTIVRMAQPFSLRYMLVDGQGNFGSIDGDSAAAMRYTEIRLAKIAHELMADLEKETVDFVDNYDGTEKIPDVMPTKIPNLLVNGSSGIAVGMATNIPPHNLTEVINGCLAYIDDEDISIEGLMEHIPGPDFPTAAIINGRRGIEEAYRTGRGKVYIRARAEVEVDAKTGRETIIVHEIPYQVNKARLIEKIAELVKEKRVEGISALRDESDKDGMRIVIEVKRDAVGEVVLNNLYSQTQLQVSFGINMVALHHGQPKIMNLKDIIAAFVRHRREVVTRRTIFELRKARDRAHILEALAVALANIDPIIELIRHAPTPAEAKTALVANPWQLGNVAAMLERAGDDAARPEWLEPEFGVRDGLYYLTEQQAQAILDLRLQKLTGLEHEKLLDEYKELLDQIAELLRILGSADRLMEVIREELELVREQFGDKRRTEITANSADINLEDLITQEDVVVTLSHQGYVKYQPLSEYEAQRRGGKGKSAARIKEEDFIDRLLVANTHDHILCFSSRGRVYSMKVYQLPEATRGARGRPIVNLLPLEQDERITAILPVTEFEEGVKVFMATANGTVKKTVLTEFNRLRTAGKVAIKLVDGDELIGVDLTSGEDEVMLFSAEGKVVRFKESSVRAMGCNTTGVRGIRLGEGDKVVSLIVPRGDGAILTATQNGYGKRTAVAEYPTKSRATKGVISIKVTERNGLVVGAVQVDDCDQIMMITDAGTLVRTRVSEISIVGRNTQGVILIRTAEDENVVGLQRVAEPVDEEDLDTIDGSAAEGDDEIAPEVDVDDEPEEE

[14] = test system: Group C Streptococcus (4 strains); assay: MIC range, broader panel of Quotient Bioresearch strains (Table 3)
[15] = test system: Escherichia coli (6 strains); assay: MIC range, broader panel of Quotient Bioresearch strains (Table 4); format: cell-based

In the case of `C[C@H]1COc2c(N3CCN(C)CC3)c(F)cc3c(=O)c(C(=O)O)cn1c23` [Levofloxacin, reference compound], the MIC ([1]; strain GN54, Acinetobacter baumannii levofloxacin-resistant clinical isolate, read-out: MIC) was ≥ 16 µg/mL.
Compound `Cc1c(-c2ccc(N)c(F)c2)ccn2c(=O)c(C(=O)[O-])cc(C3CC3)c12.[K+]` [Example 2 K salt, potassium 8-(4-amino-3-fluoro-phenyl)-1-cyclopropyl-9-methyl-4-oxo-4H-quinolizine-3-carboxylate] has an MIC ([2]; read-out: MIC Range High, Pseudomonas aeruginosa (12 strains)) of 16 µg/mL, an MIC ([2]; read-out: MIC Range Low, Pseudomonas aeruginosa (12 strains)) of 0.5 µg/mL and an MIC50 ([2]; read-out: MIC Range Median, Pseudomonas aeruginosa (12 strains)) of 4 µg/mL. The MIC ([3]; read-out: MIC Range High, Streptococcus pyogenes (4 strains)) was 0.12 µg/mL, the MIC ([3]; read-out: MIC Range Low, Streptococcus pyogenes (4 strains)) was 0.06 µg/mL and the MIC50 ([3]; read-out: MIC Range Median, Streptococcus pyogenes (4 strains)) was 0.09 µg/mL. The pIC50 [4] was 5.35, the MIC ([5]; read-out: MIC Range Low, Enterococcus faecium (3 strains)) was 0.12 µg/mL and the MIC50 ([5]; read-out: MIC Range Median, Enterococcus faecium (3 strains)) was 0.5 µg/mL. The MIC ([6]; read-out: MIC Range High, Acinetobacter baumannii (12 strains)) was 16 µg/mL, the MIC ([6]; read-out: MIC Range Low, Acinetobacter baumannii (12 strains)) was 0.06 µg/mL and the MIC50 ([6]; read-out: MIC Range Median, Acinetobacter baumannii (12 strains)) was 6 µg/mL. It also gave an MIC ([7]; read-out: MIC Range High, Klebsiella pneumonia (4 strains)) of 16 µg/mL, an MIC ([7]; read-out: MIC Range Low, Klebsiella pneumonia (4 strains)) of 0.12 µg/mL and an MIC50 ([7]; read-out: MIC Range Median, Klebsiella pneumonia (4 strains)) of 10 µg/mL. For the same compound, the MIC ([8]; read-out: MIC Range High, Enterococcus faecalis (5 strains)) was 1 µg/mL, the MIC ([8]; read-out: MIC Range Low, Enterococcus faecalis (5 strains)) was ≤ 0.015 µg/mL and the MIC50 ([8]; read-out: MIC Range Median, Enterococcus faecalis (5 strains)) was 0.03 µg/mL. For the same compound, the MIC50 ([9]; 16 h, Median of the strain panel) was ≤ 0.015 µg/mL, the MIC ([9]; High of the strain panel, read-out: MIC Range High, Haemophilus influenza (5 strains)) was ≤ 0.015 µg/mL and the MIC ([9]; Low of the strain panel, read-out: MIC Range Low, Haemophilus influenza (5 strains)) was ≤ 0.015 µg/mL. The solubility at 24 h (physchem; fassgf or other biorelevant) was 171 µM, the solubility at 24 h (physchem; pH 7.4, aqueous buffer) was 28 µM and the solubility at 24 h (physchem; simulated gastric fluid) was 21 µM. For the same compound, the MIC ([10]; read-out: MIC Range High, Staphylococcus aureus (16 strains)) was 0.25 µg/mL, the MIC ([10]; read-out: MIC Range Low, Staphylococcus aureus (16 strains)) was ≤ 0.015 µg/mL and the MIC50 ([10]; read-out: MIC Range Median, Staphylococcus aureus (16 strains)) was 0.06 µg/mL. For the same compound, the MIC ([1]; Acinetobacter baumannii, GN54) was 2 µg/mL, the “Mean Parent Remaining” value ([11]; Liver microsomes + S9, human) was 95% and the “Mean Parent Remaining” value ([11]; Liver microsomes + S9, mouse) was 58%. The “Mean Parent Remaining” value ([11]; Liver microsomes, human) was 90%, the “Mean Parent Remaining” value ([11]; Liver microsomes, mouse) was 53% and the MIC ([12]; read-out: MIC Range High, Burkholderia cepacia (5 strains)) was 0.25 µg/mL. The MIC ([12]; read-out: MIC Range Low, Burkholderia cepacia (5 strains)) was 0.06 µg/mL, the MIC50 ([12]; read-out: MIC Range Median, Burkholderia cepacia (5 strains)) was 0.12 µg/mL and the MIC ([13]; read-out: MIC Range Low, Streptococcus pneumonia (5 strains)) was 0.06 µg/mL. For the same compound, the MIC50 ([13]; read-out: MIC Range Median, Streptococcus pneumonia (5 strains)) was 0.12 µg/mL, the pIC50 (bacterial gyrase) was ≥ 5.85 and the MIC ([14]; read-out: MIC Range High, Group C Streptococcus (4 strains)) was 0.12 µg/mL. The MIC ([14]; read-out: MIC Range Low, Group C Streptococcus (4 strains)) was 0.03 µg/mL, the MIC50 ([14]; read-out: MIC Range Median, Group C Streptococcus (4 strains)) was 0.06 µg/mL and the MIC ([15]; read-out: MIC Range High, Escherichia coli (6 strains)) was 16 µg/mL. For the same compound, the MIC ([15]; read-out: MIC Range Low, Escherichia coli (6 strains)) was ≤ 0.015 µg/mL and the MIC50 ([15]; read-out: MIC Range Median, Escherichia coli (6 strains)) was 16 µg/mL.
